Results published in US20250163038A1, “CBL-B MODULATORS AND USES THEREOF” (Nimbus Clio, Inc., priority 2021, published 2025).
pEC50, pIC50: −log10 of the molar value.

Tests used:
[1] = target: T1, Recombinant human c-Cbl (aa 47-435) (Homo sapiens, UniProt P22681); experiment: c-Cbl Biochemical Assay (TR-FRET); conditions: hc-Cbl Biochemical Assay (TR-FRET); read-out: TR-FRET hcCbl IC50
T1 sequence (P22681 47-435): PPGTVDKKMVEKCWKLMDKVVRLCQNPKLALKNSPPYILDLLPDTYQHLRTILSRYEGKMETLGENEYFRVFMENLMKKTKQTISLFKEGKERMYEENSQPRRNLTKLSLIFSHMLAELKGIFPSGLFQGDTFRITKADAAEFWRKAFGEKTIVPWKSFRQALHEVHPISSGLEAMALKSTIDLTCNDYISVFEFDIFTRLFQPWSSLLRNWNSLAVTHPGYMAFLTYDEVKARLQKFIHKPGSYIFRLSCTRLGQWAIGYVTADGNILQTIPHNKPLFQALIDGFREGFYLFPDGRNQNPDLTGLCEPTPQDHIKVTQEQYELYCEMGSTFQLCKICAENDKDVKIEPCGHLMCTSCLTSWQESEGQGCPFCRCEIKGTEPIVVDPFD

[2] = target: Recombinant human Cbl-b (aa 36-427) (Homo sapiens, UniProt Q13191); experiment: Cbl-b Biochemical Assay (TR-FRET); conditions: read-out: TR-FRET hCbl-b IC50
[3] = test system: Jurkat (clone E6-1) cells with NFAT luciferase reporter; experiment: Jurkat reporter assay (NFAT Luciferase); assay type: cell-based; conditions: Homo sapiens; Jurkat NFAT luciferase reporter cells, anti-CD3 stimulation, 6 hr; read-out: Jurkat NFAT EC50

Chain of Recombinant human Cbl-b (aa 36-427) (Q13191 36-427): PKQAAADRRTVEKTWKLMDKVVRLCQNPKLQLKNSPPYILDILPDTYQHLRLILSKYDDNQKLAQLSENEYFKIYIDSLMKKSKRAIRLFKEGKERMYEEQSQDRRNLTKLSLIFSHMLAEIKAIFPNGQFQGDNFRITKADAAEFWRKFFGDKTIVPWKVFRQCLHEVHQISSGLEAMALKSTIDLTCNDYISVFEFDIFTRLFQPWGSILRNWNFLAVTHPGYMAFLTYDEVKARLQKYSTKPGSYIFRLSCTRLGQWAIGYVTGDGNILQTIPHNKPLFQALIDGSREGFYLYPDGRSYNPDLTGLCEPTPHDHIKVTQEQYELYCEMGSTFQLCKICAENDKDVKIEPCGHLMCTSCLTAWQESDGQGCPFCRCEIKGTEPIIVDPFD

| pIC50 [1] | pIC50 [2] | pEC50 [3] | SMILES |
| --- | --- | --- | --- |
| > 6.70 | > 6.70 | 6.00 to 6.70 | Cn1cnnc1-c1cc(F)ccc1-c1cccc(-c2nc3cc(CNCC4(C#N)CCCC4)cc(C(F)(F)F)c3o2)c1 [CX-1, 1-((((2-(4′-Fluoro-2′-(4-methyl-4H-1,2,4-triazol-3-yl)-[1,1′-biphenyl]-3-yl)-7-(trifluoromethyl)benzo[d]oxazol-5-yl)methyl)amino)methyl)cyclopentane-1-carbonitrile] |
| 6.00 to 6.70 | > 6.70 | 6.00 to 6.70 | COc1cc(CNC[C@H]2CCCO2)cc2nc(-c3cccc(-c4ccc(F)cc4-c4nncn4C)c3)oc12 [FR-1, (R)-1-(2-(4′-Fluoro-2′-(4-methyl-4H-1,2,4-triazol-3-yl)-[1,1′-biphenyl]-3-yl)-7-methoxybenzo[d]oxazol-5-yl)-N-((tetrahydrofuran-2-yl)methyl)methanamine] |
| > 6.70 | > 6.70 | > 6.70 | COCCCNCc1cc(C(F)(F)F)c2oc(-c3cccc(-c4ccc(F)cc4-c4nncn4C)c3)nc2c1 [EE-2, N-((2-(4′-Fluoro-2′-(4-methyl-4H-1,2,4-triazol-3-yl)-[1,1′-biphenyl]-3-yl)-7-(trifluoromethyl)benzo[d]oxazol-5-yl)methyl)-3-methoxypropan-1-amine] |
| > 6.70 | > 6.70 | > 6.70 | COC[C@H](C)NCc1cc(F)c2oc(-c3cc(-c4ccc(F)cc4-c4nncn4C)cc(C4CC4)n3)nc2c1 [AFU-1, [(2-{6-Cyclopropyl-4-[4-fluoro-2-(4-methyl-1,2,4-triazol-3-yl)phenyl]pyridin-2-yl}-7-fluoro-1,3-benzoxazol-5-yl)methyl][(2S)-1-methoxypropan-2-yl]amine] |
| > 6.70 | > 6.70 | > 6.70 | Cn1cnnc1-c1cc(Cl)ccc1-c1cccc(-c2nc3cc(CN[C@@H]4CCC[C@@H]4O)cc(C(F)(F)F)c3[nH]2)c1 [ADB-9, (1S,2R)-2-(((2-(4′-Chloro-2′-(4-methyl-4H-1,2,4-triazol-3-yl)-[1,1′-biphenyl]-3-yl)-7-(trifluoromethyl)-1H-benzo[d]imidazol-5-yl)methyl)amino)cyclopentan-1-ol] |
| > 6.70 | > 6.70 | > 6.70 | Cn1cnnc1-c1cc(Cl)ccc1-c1cc(-c2nc3cc(CNCC4(O)CCC4)ccc3o2)nc(C2CC2)c1 [ADT-12, 1-({[(2-{4-[4-Chloro-2-(4-methyl-1,2,4-triazol-3-yl)phenyl]-6-cyclopropylpyridin-2-yl}-1,3-benzoxazol-5-yl)methyl]amino}methyl)cyclobutan-1-ol] |
| > 6.70 | > 6.70 | > 6.70 | Cn1cnnc1-c1cc(F)ccc1-c1cc(-c2nc3cc(CNCC(C)(C)O)c(F)c(F)c3o2)nc(C2CC2)c1 [AGF-1, 1-{[(2-{6-Cyclopropyl-4-[4-fluoro-2-(4-methyl-1,2,4-triazol-3-yl)phenyl]pyridin-2-yl}-6,7-difluoro-1,3-benzoxazol-5-yl)methyl]amino}-2-methylpropan-2-ol] |
| > 6.70 | > 6.70 | > 6.70 | Cn1cnnc1-c1cc(F)ccc1-c1cccc(-c2nc3cc(CNCCC(F)F)cc(C(F)(F)F)c3o2)c1 [EW-2, 3,3-Difluoro-N-((2-(4′-fluoro-2′-(4-methyl-4H-1,2,4-triazol-3-yl)-[1,1′-biphenyl]-3-yl)-7-(trifluoromethyl)benzo[d]oxazol-5-yl)methyl)propan-1-amine] |
| > 6.70 | > 6.70 | > 6.70 | C[C@@H](N[C@@H]1CCC[C@@H]1O)c1cc(C(F)(F)F)c2oc(-c3cccc(-c4ccc(F)cc4-c4nncn4C)c3)nc2c1 [EA-2, (1S,2R)-2-(((R)-1-(2-(4′-Fluoro-2′-(4-methyl-4H-1,2,4-triazol-3-yl)-[1,1′-biphenyl]-3-yl)-7-(trifluoromethyl)benzo[d]oxazol-5-yl)ethyl)amino)cyclopentan-1-ol] |
| > 6.70 | > 6.70 | > 6.70 | Cn1cnnc1-c1cc(F)ccc1-c1cc(-c2nc3cc(CN[C@@H]4CCC[C@@H]4O)cc(C(F)(F)F)c3[nH]2)nc(C2CC2)c1 [ADV-2, (1S,2R)-2-{[(2-{6-Cyclopropyl-4-[4-fluoro-2-(4-methyl-1,2,4-triazol-3-yl)phenyl]pyridin-2-yl}-7-(trifluoromethyl)-1H-1,3-benzodiazol-5-yl)methyl]amino}cyclopentan-1-ol] |
| > 6.70 | > 6.70 | > 6.70 | Cn1cnnc1-c1cc(F)ccc1-c1cc(-c2nc3cc(CN[C@@H]4CCC[C@@H]4O)ccc3o2)nc(C2CC2)c1 [AEH-2, (1S,2R)-2-{[(2-{6-Cyclopropyl-4-[4-fluoro-2-(4-methyl-1,2,4-triazol-3-yl)phenyl]pyridin-2-yl}-1,3-benzoxazol-5-yl)methyl]amino}cyclopentan-1-ol] |
| 5.00 to 6.00 | > 6.70 | 5.00 to 6.00 | Cn1cnnc1-c1cc(F)ccc1-c1cccc(-c2nc3cc(CN[C@@H]4CCC[C@@H]4O)ccc3[nH]2)c1 [BY-1, (1S,2R)-2-(((2-(4′-Fluoro-2′-(4-methyl-4H-1,2,4-triazol-3-yl)-[1,1′-biphenyl]-3-yl)-1H-benzo[d]imidazol-5-yl)methyl)amino)cyclopentan-1-ol] |
| 5.00 to 6.00 | > 6.70 | 5.00 to 6.00 | C[C@@H]1CN(Cc2cc(C(F)(F)F)c3oc(-c4cccc(-c5ccc(F)cc5-c5nncn5C)c4)nc3c2)CCO1 [Example V-1, (R)-2-(4′-Fluoro-2′-(4-methyl-4H-1,2,4-triazol-3-yl)-[1,1′-biphenyl]-3-yl)-5-((2-methylmorpholino)methyl)-7-(trifluoromethyl)benzo[d]oxazole] |
| 5.00 to 6.00 | > 6.70 | 6.00 to 6.70 | Cn1cnnc1-c1ccccc1-c1cccc(-c2nc3cc(CN[C@@H]4CCC[C@@H]4O)cc(C(F)(F)F)c3o2)c1 [Example R-3, (1S,2R)-2-(((2-(2′-(4-Methyl-4H-1,2,4-triazol-3-yl)-[1,1′-biphenyl]-3-yl)-7-(trifluoromethyl)benzo[d]oxazol-5-yl)methyl)amino)cyclopentan-1-ol] |
| 5.00 to 6.00 | 6.00 to 6.70 | 5.00 to 6.00 | Cc1c(F)c(CO)cc2nc(-c3cc(-c4ccc(F)cc4-c4nncn4C)cc(C4CC4)n3)oc12 [AGP-7, (2-{6-Cyclopropyl-4-[4-fluoro-2-(4-methyl-1,2,4-triazol-3-yl)phenyl]pyridin-2-yl}-6-fluoro-7-methyl-1,3-benzoxazol-5-yl)methanol] |
| > 6.70 | > 6.70 | 6.00 to 6.70 | Cn1cnnc1-c1cc(F)ccc1-c1cc(-c2nc3cc(CNCC4(F)CCC4)cc(F)c3o2)nc(C2CC2)c1 [AFJ-1, [(2-{6-Cyclopropyl-4-[4-fluoro-2-(4-methyl-1,2,4-triazol-3-yl)phenyl]pyridin-2-yl}-7-fluoro-1,3-benzoxazol-5-yl)methyl][(1-fluorocyclobutyl)methyl]amine] |
| 5.00 to 6.00 | > 6.70 | 6.00 to 6.70 | Cn1cnnc1-c1cc(F)ccc1-c1cccc(-c2nc3cc(CN[C@@H]4CCC[C@@H]4O)cc(C(F)(F)F)c3o2)c1 [Example T-5, (1S,2R)-2-(((2-(4′-Fluoro-2′-(4-methyl-4H-1,2,4-triazol-3-yl)-[1,1′-biphenyl]-3-yl)-7-(trifluoromethyl)benzo[d]oxazol-5-yl)methyl)amino)cyclopentan-1-ol] |
| > 6.70 | > 6.70 | 6.00 to 6.70 | Cn1cnnc1-c1cc(F)ccc1-c1cccc(-c2nc3cc(CN[C@@H]4CCC[C@@]4(C)O)cc(C(F)(F)F)c3o2)c1 [DP-5, (1R,2R)-2-(((2-(4′-Fluoro-2′-(4-methyl-4H-1,2,4-triazol-3-yl)-[1,1′-biphenyl]-3-yl)-7-(trifluoromethyl)benzo[d]oxazol-5-yl)methyl)amino)-1-methylcyclopentan-1-ol] |
| > 6.70 | > 6.70 | > 6.70 | COCCNCc1cc(F)c2oc(-c3cccc(-c4ccc(F)cc4-c4nncn4C)c3)nc2c1 [IS-1, N-((7-Fluoro-2-(4′-fluoro-2′-(4-methyl-4H-1,2,4-triazol-3-yl)-[1,1′-biphenyl]-3-yl)benzo[d]oxazol-5-yl)methyl)-2-methoxyethan-1-amine] |
| > 6.70 | > 6.70 | > 6.70 | COC[C@H](C)NCc1cc(C)c2oc(-c3cc(-c4ccc(F)cc4-c4nncn4C)cc(C4CC4)n3)nc2c1 [AGK-1, [(2-{6-Cyclopropyl-4-[4-fluoro-2-(4-methyl-1,2,4-triazol-3-yl)phenyl]pyridin-2-yl}-7-methyl-1,3-benzoxazol-5-yl)methyl][(2S)-1-methoxypropan-2-yl]amine] |

| SMILES | pIC50 [1] | pIC50 [2] | pEC50 [3] |
| --- | --- | --- | --- |
| Cn1cnnc1-c1cc(C#N)ccc1-c1cccc(-c2nc3cc(CN[C@@H]4CCC[C@@H]4O)cc(C(F)(F)F)c3[nH]2)c1 [AAW-5, 3′-(5-((((1R,2S)-2-Hydroxycyclopentyl)amino)methyl)-7-(trifluoromethyl)-1H-benzo[d]imidazol-2-yl)-2-(4-methyl-4H-1,2,4-triazol-3-yl)-[1,1′-biphenyl]-4-carbonitrile] | 5.00 to 6.00 | > 6.70 | 6.00 to 6.70 |
